These are literature values, as cited in article PMC7395068, “The evolution of strategies to minimise the risk of human drug-induced liver injury (DILI) in drug discovery and development” (Archives of Toxicology, 2020).

Like-named read-outs stand apart in the source and are kept apart here.

The conditions of this data set: cited from earlier work.
Where [1] appears, read: binary in vivo DILI call given beside the severity category, ref Chen 2016.
[2] abbreviates: human DILI concern category (LTKB DILIrank), ref Chen 2016.
Setting [3] is: binary in vivo human DILI call, ref Chen 2016.
[4] abbreviates: human DILI, LTKB DILIrank category, ref Chen 2016.

With omalizumab, under “in vivo”, the “DILI +VE (5-8), DILI -VE (-4)” value was “-VE” and the DILI severity category entry is “vNo-DILI-Concern”.
As to dalteparin sodium, under “in vivo”, the “DILI +VE (5-8), DILI -VE (-4)” value is reported as “+VE” and the DILI severity category entry is “vLess-DILI-Concern”.
As for nesiritide, where the note is “in vivo”, the “DILI +VE (5-8), DILI -VE (-4)” value is “-VE” and the DILI severity category entry is recorded as “vNo-DILI-Concern”.
On to `CC(=O)/N=c1/sc(S(N)(=O)=O)nn1C` [methazolamide], for which the “DILI +VE (5-8), DILI -VE (-4)” value under setting [1] is “+VE”. The DILI severity category entry under setting [2] is recorded as “vLess-DILI-Concern”.
As for polymyxin b sulfate, under setting [1], the “DILI +VE (5-8), DILI -VE (-4)” value was “-VE”. Besides, under setting [2], the DILI severity category result was “vNo-DILI-Concern”.
Turning to `O=C1Nc2ccccc2C1(c1ccc(O)cc1)c1ccc(O)cc1` [oxyphenisatin], where the note is “in vivo”, the “DILI +VE (5-8), DILI -VE (-4)” value was “+VE” and the DILI severity category result was “vMost-DILI-Concern”.
For the compound `Nc1cccc2c1CN(C1CCC(=O)NC1=O)C2=O` (centres unmarked) [lenalidomide], under setting [3], the “DILI +VE (5-8), DILI -VE (-4)” value is “+VE”. In addition, under setting [4], the DILI severity category result was “vLess-DILI-Concern”.
Take `COc1ccc2c3c1O[C@H]1C(=O)CC[C@@]4(O)[C@@H](C2)N(C)CC[C@]314` [oxycodone]: under “in vivo”, the “DILI +VE (5-8), DILI -VE (-4)” value is listed as “-VE” and the DILI severity category entry is on record as “vNo-DILI-Concern”.
Turning to `O=S(=O)(O)CCS` [mesna], under setting [1], the “DILI +VE (5-8), DILI -VE (-4)” value is “-VE”. For the same compound, the DILI severity category entry under setting [2] is “Ambiguous DILI-concern”.
On to `CC(=O)OCC(=O)[C@@]1(O)CC[C@H]2[C@@H]3CCC4=CC(=O)CC[C@]4(C)[C@H]3C(=O)C[C@@]21C` [cortisone acetate], for which the “DILI +VE (5-8), DILI -VE (-4)” value under setting [3] is on record as “-VE”. In addition, the DILI severity category entry under setting [4] was “vNo-DILI-Concern”.
As to exenatide, the “DILI +VE (5-8), DILI -VE (-4)” value under setting [3] is “-VE”. In addition, the DILI severity category result under setting [4] is recorded as “vNo-DILI-Concern”.
With `CC[C@H](C)[C@H]1O[C@]2(CC[C@@H]1C)C[C@@H]1C[C@@H](C/C=C(\C)[C@@H](O[C@H]3C[C@H](OC)[C@@H](O[C@H]4C[C@H](OC)[C@@H](O)[C@H](C)O4)[C@H](C)O3)[C@@H](C)/C=C/C=C3\CO[C@@H]4[C@H](O)C(C)=C[C@@H](C(=O)O1)[C@]34O)O2` [ivermectin], the “DILI +VE (5-8), DILI -VE (-4)” value under setting [3] is given as “+VE”. The DILI severity category result under setting [4] was “vLess-DILI-Concern”.
As for `Cc1c(OCC(F)(F)F)ccnc1C[S@@+]([O-])c1nc2ccccc2[nH]1` [dexlansoprazole], the “DILI +VE (5-8), DILI -VE (-4)” value under setting [3] is “+VE”. The DILI severity category entry under setting [4] is “vLess-DILI-Concern”.
For the compound `CN(C)CCOC(c1ccc(Cl)cc1)c1ccccn1` (centres unmarked) [carbinoxamine], the DILI severity category result (LTKB DILIrank category, ref Chen 2016) is “vNo-DILI-Concern”. Further, the “DILI +VE (5-8), DILI -VE (-4)” value (binary DILI call, ref Chen 2016) is given as “-VE”.
On to `C[C@]12CC[C@@H]3c4ccc(OC(=O)N(CCCl)CCCl)cc4CC[C@H]3[C@@H]1CC[C@@H]2O` [estramustine], for which, under setting [3], the “DILI +VE (5-8), DILI -VE (-4)” value is “+VE”. The DILI severity category result under setting [4] is recorded as “vMost-DILI-Concern”.
For `CSCC[C@H](NC(=O)[C@H](Cc1ccc(OS(=O)(=O)O)cc1)NC(=O)[C@@H](N)CC(=O)O)C(=O)NCC(=O)N[C@@H](Cc1c[nH]c2ccccc12)C(=O)N[C@@H](CCSC)C(=O)N[C@@H](CC(=O)O)C(=O)N[C@@H](Cc1ccccc1)C(N)=O` [sincalide], for the setting “in vivo”, the “DILI +VE (5-8), DILI -VE (-4)” value is “-VE” and the DILI severity category entry is reported as “vNo-DILI-Concern”.
On to `CC(C)N(CCC(C(N)=O)(c1ccccc1)c1ccccn1)C(C)C` (centres unmarked) [disopyramide], for which the “DILI +VE (5-8), DILI -VE (-4)” value under setting [3] is given as “+VE”. Moreover, the DILI severity category entry under setting [4] was “vLess-DILI-Concern”.
As for `CN1CCN(C(=O)O[C@H]2c3nccnc3C(=O)N2c2ccc(Cl)cn2)CC1` [eszopiclone], under setting [3], the “DILI +VE (5-8), DILI -VE (-4)” value is recorded as “-VE”. Further, under setting [4], the DILI severity category entry is reported as “Ambiguous DILI-concern”.
Take `O=C(CCCCC(=O)Nc1c(I)cc(I)c(C(=O)O)c1I)Nc1c(I)cc(I)c(C(=O)O)c1I` [iodipamide meglumine]: the “DILI +VE (5-8), DILI -VE (-4)” value under setting [3] is listed as “-VE”. Further, under setting [4], the DILI severity category result is “vNo-DILI-Concern”.
